# Experimental data as given in patent US7015228B2, “4-amino-2-(2-pyridyl)pyrimidines as microbicidal active substances” (Ciba Specialty Chemicals Corporation, priority 2001, dated 2006).
# What was measured:
# Type in all cases: cell-based
# [1] = test system: Escherichia coli NCTC 8196; experiment: Minimum inhibitory concentration (MIC) in microtitre plates; conditions: for Minimum inhibitory concentration (MIC) E. coli NCTC 8196: Table 8, * = significant inhibition of growth, but not complete inhibition
# Experimental: (§1) Determination of the Minimum Inhibitory Concentration (MIC Value) in Microtitre Plates
# (§2) Casein-soybean flour-peptone broth for preparation of pre-cultures of test bacteria and yeast.
# (§3) Mycological slant agar for the pre-culture of moulds
# (§4) Examples of Test Organisms:
# (§5) The test substances are pre-dissolved in dimethyl sulfoxide (DMSO) and tested in a dilution series of 1:2.
# (§6) Bacteria and yeast are cultured overnight in CASO broth, the mould is cultured overnight on mycological slant agar, and washed off using 10 ml of 0.85% sodium chloride solution (+0.1% Triton X-100).
# (§7) All the test organisms are adjusted to an organism count of 1–5×10^6 CFU/ml using 0.85% sodium chloride solution.
# (§8) The test substances are pre-pipetted into microtitre plates in amounts of 8 μl per well.
# (§9) Pre-diluted organism suspensions are diluted 1:100 in CASO broth (bacteria and yeast) or Sabouraud 2% glucose broth (mould) and are added in amounts of 192 μl per well to the test substances.
# (§10) The test batches are incubated for 48 hours at 37° C. (bacteria and yeast) or for 5 days at 28° C. (mould).
# (§11) After incubation, the growth is determined on the basis of the turbidity of the test batches (optical density) at 620 nm in a microplate reader.
# (§12) The minimum inhibitory concentration (MIC value) is the concentration of substance at which there is found (compared to the growth of the control) an appreciable inhibition of growth (≦20% growth) of the test organisms.
# (§13) One microtitre plate is used for each test organism and substance concentration. All the substances are tested in duplicate.
# [2] = test system: Staphylococcus hominis DMS 20328; experiment: as above; conditions: Table 7, 48 hours at 37° C., MIC = ≦20% growth compared to control
# Experimental: as §1, §2, §3, §4, §5, §6, §7, §8, §9, §10, §11, §12, §13
# [3] = test system: S. epidermidis ATCC 12228; experiment: Minimum inhibitory concentration (MIC), further microorganisms; conditions: Table 8; * = significant inhibition of growth, but not complete inhibition
# Experimental: as §1, §2, §3, §5, §6, §7, §8, §9, §10, §11, §12, §13
# [4] = test system: Epidermophyton floccosum DSM 10709; experiment: as above; conditions: Table 8; * = significant inhibition of growth, but not complete inhibition
# Experimental: as §1, §2, §3, §5, §6, §7, §8, §9, §10, §11, §12, §13
# [5] = test system: Enterococcus hirae ATCC 10541; experiment: as above; conditions: Table 8; * = significant inhibition of growth, but not complete inhibition
# Experimental: as §1, §2, §3, §5, §6, §7, §8, §9, §10, §11, §12, §13
# [6] = test system: Staphylococcus aureus ATCC 9144; experiment: as above; conditions: Table 8; * = significant inhibition of growth, but not complete inhibition
# Experimental: as §1, §2, §3, §5, §6, §7, §8, §9, §10, §11, §12, §13
# [7] = test system: Trichophyton mentagrophytes ATCC 9533; experiment: as above; conditions: Table 8; * = significant inhibition of growth, but not complete inhibition
# Experimental: as §1, §2, §3, §5, §6, §7, §8, §9, §10, §11, §12, §13
# [8] = test system: Micrococcus luteus ATCC 9341; experiment: as above; conditions: Table 8; * = significant inhibition of growth, but not complete inhibition
# Experimental: as §1, §2, §3, §5, §6, §7, §8, §9, §10, §11, §12, §13
# [9] = Table 7, 48 hours at 37° C., MIC = ≦20% growth compared to control
Structure (SMILES),"Minimum inhibitory concentration (MIC) E. coli [1, 9] [µg/mL]",Minimum inhibitory concentration (MIC) S. hominis [2] [µg/mL],other results
CCc1c(C)nc(-c2ccccn2)nc1NCCCCCCCN [compound 4],>120,>120,–
CCc1c(C)nc(-c2ccccn2)nc1NCCCCCCCCN [compound 5],>120,>120,–
CCCCCCCCNc1nc(-c2ccccn2)nc(C)c1CC [compound 9],>120,7.5,Minimum inhibitory concentration (MIC) E. coli NCTC 8196 [1]: >60 µg/mL; Minimum inhibitory concentration (MIC) S. epidermidis ATCC 12228 [3]: *15 μg/mL; Minimum inhibitory concentration (MIC) Epidermophyton floccosum DSM 10709 [4]: *15 μg/mL; Minimum inhibitory concentration (MIC) Enterococcus hirae ATCC 10541 [5]: 30 µg/mL; Minimum inhibitory concentration (MIC) Staphylococcus aureus ATCC 9144 [6]: 15 µg/mL; Minimum inhibitory concentration (MIC) Trichophyton mentagrophytes ATCC 9533 [7]: *30 μg/mL; Minimum inhibitory concentration (MIC) Micrococcus luteus ATCC 9341 [8]: 3.75 µg/mL
CCCCCCCCCNc1nc(-c2ccccn2)nc(C)c1CC [compound 10],>80,5,Minimum inhibitory concentration (MIC) E. coli NCTC 8196 [1]: >60 µg/mL; Minimum inhibitory concentration (MIC) S. epidermidis ATCC 12228 [3]: 15 µg/mL; Minimum inhibitory concentration (MIC) Epidermophyton floccosum DSM 10709 [4]: 60 µg/mL; Minimum inhibitory concentration (MIC) Enterococcus hirae ATCC 10541 [5]: 30 µg/mL; Minimum inhibitory concentration (MIC) Staphylococcus aureus ATCC 9144 [6]: 15 µg/mL; Minimum inhibitory concentration (MIC) Trichophyton mentagrophytes ATCC 9533 [7]: 60 µg/mL; Minimum inhibitory concentration (MIC) Micrococcus luteus ATCC 9341 [8]: <0.5 µg/mL
CCCCCCCCCCCCCCCCNc1nc(-c2ccccn2)nc(C)c1CC [compound 13],>120,120,–
Cc1cc(NCCCCCCCN)nc(-c2ccccn2)n1 [compound 16],>120,>120,–
Cc1cc(NCCCCCCCCN)nc(-c2ccccn2)n1 [compound 17],>80,>80,–
CCCCCCCNc1cc(C)nc(-c2ccccn2)n1 [compound 20],120,7.5,–
CCCCCCCCCCCCCCCCNc1cc(C)nc(-c2ccccn2)n1 [compound 25],>120,15,–
NCCCCCCCNc1cc(C(F)(F)F)nc(-c2ccccn2)n1 [compound 28],>80,>80,–
NCCCCCCCCNc1cc(C(F)(F)F)nc(-c2ccccn2)n1 [compound 29],>80,>80,–
NCCCCCCCCCCCCNc1cc(C(F)(F)F)nc(-c2ccccn2)n1 [compound 31],20,5,–
CCCCCCCCCCCCNc1cc(C(F)(F)F)nc(-c2ccccn2)n1 [compound 36],–,–,"MIC ([1]; Escherichia coli, NCTC8196, Table 7, 48 hours at 37° C., MIC = ≦20% growth compared to control, read-out: Minimum inhibitory concentration (MIC) E. coli): > 120 µg/mL; MIC ([2]; Staphylococcus hominis, DMS20328, read-out: Minimum inhibitory concentration (MIC) S. hominis): 60 µg/mL"
FC(F)(F)c1cc(NC2CCCCC2)nc(-c2ccccn2)n1 [compound 38],>120,60,–
FC(F)(F)c1cc(NCCc2ccccc2)nc(-c2ccccn2)n1 [compound 39],>120,30,–
CC(C)c1cc(NCCCCCCCN)nc(-c2ccccn2)n1 [compound 40],>120,120,–
CC(C)c1cc(NCCCCCCCCN)nc(-c2ccccn2)n1 [compound 41],>120,120,–
CCCCCCCCCCCCCCCCNc1cc(C(C)C)nc(-c2ccccn2)n1 [compound 49],>120,>120,–
CC(C)c1cc(NC2CCCCC2)nc(-c2ccccn2)n1 [compound 50],>120,15,–
CC(C)c1cc(NCCc2ccccc2)nc(-c2ccccn2)n1 [compound 51],>120,30,–
CC(C)(C)c1cc(NCCCCCCCCN)nc(-c2ccccn2)n1 [compound 53],>80,80,–
CC(C)(C)c1cc(NCCCCCCCCCCCCN)nc(-c2ccccn2)n1 [compound 55],60,7.5,–

Structure (SMILES),"Minimum inhibitory concentration (MIC) E. coli [1, 9] [µg/mL]",Minimum inhibitory concentration (MIC) S. hominis [2] [µg/mL],other results
CCCCCCCCCCCCCCCCNc1cc(C(C)(C)C)nc(-c2ccccn2)n1 [compound 61],>120,>120,–
Cc1nc(-c2ccccn2)nc(NCCCCCCCN)c1C(C)C [compound 64],>120,30,–
Cc1nc(-c2ccccn2)nc(NCCCCCCCCCCCCN)c1C(C)C [compound 67],20,5,–
CCCCCCCCCCCCNc1nc(-c2ccccn2)nc(C)c1C(C)C [compound 72],>120,15,–
CCCCCCCCCCCCCCCCNc1nc(-c2ccccn2)nc(C)c1C(C)C [compound 73],>120,120,–
Cc1nc(-c2ccccn2)nc(NC2CCCCC2)c1C(C)C [compound 74],>120,60,–
Cc1nc(-c2ccccn2)nc(NCCc2ccccc2)c1C(C)C [compound 75],>120,30,–
COCCc1cc(NCCCCCCCN)nc(-c2ccccn2)n1 [compound 76],>80,40,–
CCCCCCCNc1cc(CCOC)nc(-c2ccccn2)n1 [compound 80],>120,30,–
CCCCCCCCNc1cc(CCOC)nc(-c2ccccn2)n1 [compound 81],>120,15,–
CCCCCCCCCNc1cc(CCOC)nc(-c2ccccn2)n1 [compound 82],120,7.5,–
CCCCCCCCCCCCNc1cc(CCOC)nc(-c2ccccn2)n1 [compound 84],120,15,–
CCCCCCCCCCCCCCCCNc1cc(CCOC)nc(-c2ccccn2)n1 [compound 85],120,120,–
COCCc1cc(NC2CCCCC2)nc(-c2ccccn2)n1 [compound 86],>120,120,–
COCCc1cc(NCCc2ccccc2)nc(-c2ccccn2)n1 [compound 87],120,30,–
CCc1c(C)nc(-c2ccccn2)nc1NCc1ccccc1 [compound 88],120,120,–
Cc1cc(NCc2ccccc2)nc(-c2ccccn2)n1 [compound 91],>120,30,–
FC(F)(F)c1cc(NCc2ccccc2)nc(-c2ccccn2)n1 [compound 94],>120,>120,–
CCCCCCCCCCCNc1cc(C(F)(F)F)nc(-c2ccccn2)n1 [compound 95],>120,120,–
CCCCCCCCCCCCCCCNc1cc(C(F)(F)F)nc(-c2ccccn2)n1 [compound 96],120,120,–
CC(C)c1cc(NCc2ccccc2)nc(-c2ccccn2)n1 [compound 97],120,15,–
